This note sets out measurements from ChEMBL document CHEMBL4184305, “Inhibition of histone lysine methyltransferases G9a and GLP by ejection of structural Zn(II)” (Bioorg Med Chem Lett, 2018).

Active and inactive are the calls of the source. The rule behind the calls is not given here. Where only a bound is given, the exact number is not on record here.

The term inhibition denotes the drop in the measured response relative to a control, in per cent. For orientation: IC50 means the concentration needed to halve the response being measured.

Test [1] addresses T1, Histone-lysine N-methyltransferase EHMT2 (Homo sapiens) (UniProt Q96KQ7).
T1 sequence (whole entry): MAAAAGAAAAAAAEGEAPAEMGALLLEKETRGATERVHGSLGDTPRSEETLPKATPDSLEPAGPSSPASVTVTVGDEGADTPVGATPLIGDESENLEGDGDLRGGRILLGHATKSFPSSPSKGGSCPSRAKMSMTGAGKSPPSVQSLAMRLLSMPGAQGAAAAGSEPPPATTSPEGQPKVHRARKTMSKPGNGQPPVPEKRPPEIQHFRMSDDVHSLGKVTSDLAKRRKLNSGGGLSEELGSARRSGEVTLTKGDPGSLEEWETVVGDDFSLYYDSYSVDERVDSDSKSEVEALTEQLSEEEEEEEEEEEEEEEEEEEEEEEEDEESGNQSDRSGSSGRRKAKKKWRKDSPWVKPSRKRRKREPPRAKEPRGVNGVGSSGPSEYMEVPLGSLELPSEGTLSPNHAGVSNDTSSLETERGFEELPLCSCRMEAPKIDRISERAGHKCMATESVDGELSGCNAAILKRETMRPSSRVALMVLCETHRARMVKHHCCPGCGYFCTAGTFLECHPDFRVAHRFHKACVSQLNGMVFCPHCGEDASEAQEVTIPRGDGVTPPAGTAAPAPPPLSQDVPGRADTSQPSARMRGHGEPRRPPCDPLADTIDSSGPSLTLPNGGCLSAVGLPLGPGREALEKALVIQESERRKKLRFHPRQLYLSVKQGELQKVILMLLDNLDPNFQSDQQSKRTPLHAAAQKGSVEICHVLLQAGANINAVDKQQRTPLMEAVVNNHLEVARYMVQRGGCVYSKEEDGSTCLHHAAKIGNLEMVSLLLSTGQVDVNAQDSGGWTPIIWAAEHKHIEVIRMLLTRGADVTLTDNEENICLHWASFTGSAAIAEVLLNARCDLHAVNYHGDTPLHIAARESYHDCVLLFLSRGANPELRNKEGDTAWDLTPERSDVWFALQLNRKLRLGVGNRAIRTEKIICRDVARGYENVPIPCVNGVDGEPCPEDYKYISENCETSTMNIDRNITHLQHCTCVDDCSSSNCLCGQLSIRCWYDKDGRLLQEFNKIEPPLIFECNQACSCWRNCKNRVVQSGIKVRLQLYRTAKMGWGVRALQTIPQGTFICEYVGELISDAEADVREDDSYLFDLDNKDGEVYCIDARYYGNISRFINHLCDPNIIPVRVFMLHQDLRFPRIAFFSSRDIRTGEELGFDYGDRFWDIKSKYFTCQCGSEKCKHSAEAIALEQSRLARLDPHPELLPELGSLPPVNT
The experiment in a line: Inhibition of wild type recombinant human histone lysine methyltransferase G9a (913 to 1193 residues) expressed in Escherichia coli Rosetta BL21 DE3 PlysS at 10 uM using ARTKQTARKSTGGKA as substrate preincubated for 5 mins followed by substrate/SAM addition measured after 60 mins by MALDI-TOF MS analysis.

In test [2] the target is T1, Histone-lysine N-methyltransferase EHMT2 (Homo sapiens). The experiment in a line: Inhibition of wild type recombinant human histone lysine methyltransferase G9a (913 to 1193 residues) expressed in Escherichia coli Rosetta BL21 DE3 PlysS at 100 uM using ARTKQTARKSTGGKA as substrate preincubated for 5 mins followed by substrate/SAM addition measured after 60 mins by MALDI-TOF MS analysis.

The target of test [3] is T2, Histone-lysine N-methyltransferase EHMT1 (Homo sapiens, UniProt Q9H9B1).
T2 sequence (Q9H9B1 whole entry): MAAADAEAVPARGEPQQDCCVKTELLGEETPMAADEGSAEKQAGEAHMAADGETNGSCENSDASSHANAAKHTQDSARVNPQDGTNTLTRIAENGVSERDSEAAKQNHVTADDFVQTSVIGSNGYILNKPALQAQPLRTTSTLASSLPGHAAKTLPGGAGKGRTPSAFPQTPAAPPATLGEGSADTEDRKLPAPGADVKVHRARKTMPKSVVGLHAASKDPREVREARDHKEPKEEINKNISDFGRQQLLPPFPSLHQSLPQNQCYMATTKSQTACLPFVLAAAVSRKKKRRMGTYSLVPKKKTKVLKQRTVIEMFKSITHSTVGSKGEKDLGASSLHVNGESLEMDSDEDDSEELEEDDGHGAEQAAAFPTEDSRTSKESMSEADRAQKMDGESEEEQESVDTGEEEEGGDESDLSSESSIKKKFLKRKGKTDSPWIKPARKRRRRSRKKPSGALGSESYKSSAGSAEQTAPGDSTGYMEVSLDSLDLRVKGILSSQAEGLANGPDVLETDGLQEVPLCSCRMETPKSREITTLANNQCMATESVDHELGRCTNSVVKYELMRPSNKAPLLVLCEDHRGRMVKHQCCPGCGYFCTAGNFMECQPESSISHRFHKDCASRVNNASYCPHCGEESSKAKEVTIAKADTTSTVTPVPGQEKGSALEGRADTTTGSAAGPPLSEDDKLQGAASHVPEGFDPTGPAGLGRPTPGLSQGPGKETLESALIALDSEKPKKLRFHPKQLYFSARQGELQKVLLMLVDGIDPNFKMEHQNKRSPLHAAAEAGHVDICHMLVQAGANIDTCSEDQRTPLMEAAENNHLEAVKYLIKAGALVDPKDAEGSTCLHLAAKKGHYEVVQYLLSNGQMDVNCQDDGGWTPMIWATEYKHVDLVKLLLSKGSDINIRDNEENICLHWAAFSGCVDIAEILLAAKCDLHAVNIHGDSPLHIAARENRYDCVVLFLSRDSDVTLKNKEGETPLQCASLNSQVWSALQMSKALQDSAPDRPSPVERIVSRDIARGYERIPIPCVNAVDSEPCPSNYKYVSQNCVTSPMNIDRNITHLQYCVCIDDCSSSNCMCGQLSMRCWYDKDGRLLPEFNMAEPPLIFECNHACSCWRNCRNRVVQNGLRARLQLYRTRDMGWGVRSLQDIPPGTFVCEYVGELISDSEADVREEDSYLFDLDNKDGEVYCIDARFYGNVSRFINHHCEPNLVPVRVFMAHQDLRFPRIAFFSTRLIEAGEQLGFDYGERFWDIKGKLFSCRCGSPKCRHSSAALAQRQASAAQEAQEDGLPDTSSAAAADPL
As to the kind of experiment: Inhibition of wild type recombinant human histone lysine methyltransferase GLP (951 to 1235 residues) expressed in Escherichia coli Rosetta BL21 DE3 PlysS using ARTKQTARKSTGGKA as substrate preincubated for 5 mins followed by substrate/SAM addition measured after 60 mins by MALDI-TOF MS analysis.

For test [4], the target named is T3, Histone-lysine N-methyltransferase EHMT1 (Homo sapiens) (UniProt Q9H9B1).
T3 sequence (whole entry): T2 sequence (Q9H9B1 whole entry)
The experiment in a line: Inhibition of wild type recombinant human histone lysine methyltransferase GLP (951 to 1235 residues) expressed in Escherichia coli Rosetta BL21 DE3 PlysS assessed as zinc ions ejection from Cys4-Zn finger at 100 uM by FluoZin-3 based fluorescence assay.

In the case of `CCN(CC)C(=S)SSC(=S)N(CC)CC`, the inhibition result in test [1] was “inactive”. In test [2], the inhibition is > 50%. The half-maximal inhibitory concentration (IC50) in test [3] was 1600 nM. The inhibition entry in test [4] is “Active”.

Consider `O=c1c2ccccc2[se]n1-c1ccccc1` [EBSELEN], for which the inhibition entry in test [1] is “inactive”. In addition, the inhibition in test [2] is > 50%. Also, in test [3], the 50% inhibitory concentration (IC50) was 730 nM. Further, in test [4], the inhibition result is “Active”.
